The text below walks through data of publication PMC10609152, “Synthesis, Computational, and Anticancer In Vitro Investigations of Aminobenzylnaphthols Derived from 2-Naphtol, Benzaldehydes, and α-Aminoacids via the Betti Reaction” (Molecules, 2023).

Read-outs that look alike come from different tables or passages of the source.

As a reminder, the IC50 is the concentration at which inhibition is half-maximal. A word on the viability: it is the share of living cells, or the viability signal relative to a control. One may read the GI50 as the concentration giving 50% growth inhibition.

Data set [1] has as its system BxPC-3 cells. As to the kind of experiment: MTT assay, BxPC-3. Type of data set: cell-based. Conditions: Homo sapiens. The source says:
(§1) The MTT assay, also known as the 3-(4,5-dimethylthiazol-2-yl)-2,5-diphenyltetrazolium bromide assay, is a colorimetric assay used in biological and biomedical research to determine cell viability and proliferation. The MTT assay works on the assumption that live cells with active metabolism convert MTT into formazan crystals. These crystals are insoluble; however, they can be dissolved in an organic solvent such as DMSO to produce a colorful solution. The color intensity is proportional to the number of viable cells present in the culture.
(§2) BxPC-3, HT-29, and WI-38 cells were seeded on 96-well plates at a density of approximately 8–10 × 10^3 cells per 100 µL medium/well. Cells were allowed to grow for 24 h in controlled conditions (37 °C; 5% CO2). […] The experimental design included nontreated controls and blanks (wells without cells). Following 24 or 72 h of culture with the investigated compounds, 20 μL of MTT tetrazolium salt (5 mg/mL in PBS) was added to each well, and the plates were incubated for 3 h in a humidified environment (37 °C; 5% CO2). The solutions were withdrawn after incubation, and 100 μL of DMSO was added to dissolve the formazan complexes. Afterward, a spectrophotometer (microplate reader Power Wave XS BioTek Instruments, Inc., Winooski, VT, USA) reading at 570 nm was conducted. The experiments were carried out in duplicates.
(§3) GraphPad Prism 7 software was used to calculate the concentration of an MMZ compound reflecting a 50% growth inhibition (IC50). IC50 is defined as a concentration of tested compound that leads to a reduction in cell pool viability by 50% compared to the negative control (accepted as 100%). % cell viability=Absorbance value of treated cells−Absorbance value of blank/(Absorbance value of untreated cells−Absorbance value of blank)×100%
Background: Formazan colour is commonly taken as a measure of viable cells.

Data set [2] has as its system HT-29 cells. As to the kind of experiment: MTT assay, HT-29. Type of data set: cell-based. To be noted: Homo sapiens.
From the text: as §1, §2, §3

Data set [3] deals with BxPC-3 cells. As to the kind of experiment: AO/EB double staining, BxPC-3. Type of data set: cell-based. Conditions: BxPC-3, IC50 concentration, 72 h. On the procedure: (§4) BxPC-3 and HT-29 cells were plated at a density of 5 × 10^4 cells per well in 12-well plates. After 24 h, the cells were treated with MMZ-45AA and MMZ-140C at concentrations corresponding to their IC50 values obtained from the MTT assay. The cells were exposed to the compounds for 72 h. Following the incubation period, the cells were treated with a mixture of fluorochromes (100 µM AO/EB in a 1:1 ratio, v/v) for 5 min at 37 °C in the absence of light.
(§5) The staining technique allowed for the differentiation of viable, apoptotic, and necrotic cells based on their varying uptake of fluorescent DNA-binding dyes and the degree of chromatin condensation in the stained nuclei. A fluorescence microscope (Olympus BX60 F5, Olympus Optical Co., Ltd., Nagano, Japan) with an excitation wavelength of 360 nm was used to analyze the cells. The results were obtained from three independent experiments.

The test system of data set [4] is HT-29 cells. The data set is described as follows: Annexin V-FITC/PI flow cytometry, HT-29. Type of data set: cell-based. To be noted: Annexin V-FITC, HT-29, IC50 concentration, 72 h. On the procedure: (§6) The Annexin V-FITC Apoptosis Detection Kit was utilized to assess the induction of apoptosis following 72 h incubation with the tested MMZ compounds. BxPC-3 and HT-29 cells were plated at a density of 4 × 10^5 cells in 6-well plates. After 24 h, the cells were exposed to IC50 concentrations of MMZ-45AA and […], determined in the MTT assay. The experimental setup included a vehicle control with a final solvent concentration of less than 0.5% v/v DMSO, and cells treated with 2 µM SN-38 (the active metabolite of irinotecan) as a positive control. The cells were then incubated for an additional 72 h at 37 °C with 5% CO2.
(§7) Following the exposure period, the cells were trypsinized, transferred to cytometric tubes, and allowed to incubate for 40 min. Subsequently, they were centrifuged at 1400 rpm for 10 min at 4 °C. The supernatant was then removed, and the cell pellet was diluted in 1 mL PBS. The remaining steps were carried out according to the instructions provided by the manufacturer of the Annexin V-FITC Apoptosis Detection Kit. The results reported in this study were obtained from three independent experiments
In general terms: A flow cytometer gives signals particle by particle.

Data set [5] relates to BxPC-3 cells. As to the kind of experiment: Annexin V-FITC/PI flow cytometry, BxPC-3. Type of data set: cell-based. To be noted: Annexin V-FITC, BxPC-3, IC50 concentration, 72 h. On the procedure:
as §6, §7

The test system of data set [6] is HT-29 cells. As to the kind of experiment: AO/EB double staining, HT-29. The format is cell-based. Conditions: HT-29, IC50 concentration, 72 h. On the procedure: as §4, §5
The nature of data set [7]: MTT cell viability, WI-38 normal fibroblasts. To be noted: human, WI-38 normal fibroblast cells, read-out: % cell viability ± SD; for viability at 72 h: WI-38, 72 h. The format is cell-based. On the procedure: as §2, §3
A further data set concerns A549. On the set-up: method as in doi:10.31083/j.jmcm.2019.02.7181. Conditions: cited from earlier work.
The subject of a further data set is T47D. On the set-up: method as in doi:10.31083/j.jmcm.2019.02.7181. To be noted: cited from earlier work.
The test system of another data set is HeLa. On the set-up: method as in doi:10.31083/j.jmcm.2019.02.7181. To be noted: cited from earlier work.
The test system of another data set is HBL100. On the set-up: method as in doi:10.31083/j.jmcm.2019.02.7181. To be noted: cited from earlier work.
In another data set the test system is SW1573. More on the design: method as in doi:10.31083/j.jmcm.2019.02.7181. To be noted: cited from earlier work.
Setting [8] is: BxPC-3, 24-h MTT, independent experiment 1, read-out: IC50(1).
[9] abbreviates: BxPC-3, 24-h MTT, independent experiment 2, read-out: IC50(2).
[10] abbreviates: BxPC-3, 24-h MTT, read-out: Mean IC50 ± SD.
Where [11] appears, read: BxPC-3, 72-h MTT, independent experiment 1, read-out: IC50(1).
[12] abbreviates: BxPC-3, 72-h MTT, independent experiment 2, read-out: IC50(2).
Setting [13] is: BxPC-3, 72-h MTT, read-out: Mean IC50 ± SD.
Setting [14] is: HT-29, 24-h MTT, independent experiment 1, read-out: IC50(1).
Setting [15] is: HT-29, 24-h MTT, independent experiment 2, read-out: IC50(2).
[16] abbreviates: HT-29, 24-h MTT, read-out: Mean IC50 ± SD.
Setting [17] is: HT-29, 72-h MTT, independent experiment 1, read-out: IC50(1).
[18] abbreviates: HT-29, 72-h MTT, independent experiment 2, read-out: IC50(2).
Setting [19] is: HT-29, 72-h MTT, read-out: Mean IC50 ± SD.

Regarding `COC(=O)[C@H](Cc1ccccc1)N[C@@H](c1ccccc1)c1c(O)ccc2ccccc12` (mixture of isomers) [MMZ-45AA, (S,S) and (R,R)-methyl ((2-hydroxynaphthalen-1-yl)(phenyl)methyl)-L-phenylalaninate], the IC50 with BxPC-3 cells [1] (setting [8]) came out at 58.1 µM; in the data set on BxPC-3 cells [1] (setting [9]), 38 µM; in the data set on BxPC-3 cells [1] (setting [10]), 48 ± 14.2 µM; with BxPC-3 cells [1] (setting [11]), 12.1 µM; with BxPC-3 cells [1] (setting [12]) it was 14.4 µM; in the data set with BxPC-3 cells [1] (setting [13]), 13.3 µM. In addition, the IC50 in the data set on HT-29 cells [2] (setting [14]) is 40.3 µM; with HT-29 cells [2] (setting [15]), 48.1 µM; with HT-29 cells [2] (setting [16]) it was 44.2 ± 5.49 µM; in the data set with HT-29 cells [2] (setting [17]) it was 12.2 µM; in the data set on HT-29 cells [2] (setting [18]), 11.9 µM; in the data set on HT-29 cells [2] (setting [19]), 12.1 ± 0.247 µM. For the same molecule, the “% of apoptotic cells” value is recorded as 21.9 ± 3.4% in the data set with BxPC-3 cells [3], 24.23 ± 1.1% with HT-29 cells [4], 38.7 ± 5.43% in the data set on BxPC-3 cells [5] and 15.93 ± 3% with HT-29 cells [6].
With `COC(=O)[C@@H]1CCCN1[C@@H](c1ccccc1)c1c(O)ccc2ccccc12` (mixture of isomers) [MMZ-140C, (S,S) and (R,R)-methyl ((2-hydroxynaphthalen-1-yl)(phenyl)methyl)-L-prolinate], the IC50 worked out at 23.5 µM with BxPC-3 cells [1] (setting [8]); 36.8 µM with BxPC-3 cells [1] (setting [9]); 30.2 ± 9.39 µM with BxPC-3 cells [1] (setting [10]); 31.7 µM in the data set with BxPC-3 cells [1] (setting [11]); 33.2 µM with BxPC-3 cells [1] (setting [12]); 32.4 ± 1.09 µM in the data set with BxPC-3 cells [1] (setting [13]). Further, the IC50 is 35.5 µM with HT-29 cells [2] (setting [14]); 40 µM with HT-29 cells [2] (setting [15]); 37.8 ± 3.2 µM in the data set with HT-29 cells [2] (setting [16]); 9.01 µM in the data set on HT-29 cells [2] (setting [17]); 14.1 µM in the data set with HT-29 cells [2] (setting [18]); 11.6 µM in the data set on HT-29 cells [2] (setting [19]). In addition, the “% of apoptotic cells” value in the data set on BxPC-3 cells [3] is “No statistically significant changes”; in the data set with HT-29 cells [4] it was 15.13 ± 1%; in the data set with BxPC-3 cells [5] it was 33.1 ± 1.12%; with HT-29 cells [6] it was 11.73 ± 0.38%. The viability at 24 h in data set [7] (WI-38, 24 h, compound at IC50 concentration obtained for HT-29 cells) came out at 82.9 ± 2.06%. In addition, the viability at 72 h is 82.3 ± 6.96% in data set [7] (compound at IC50 concentration estimated for BxPC-3 cells) and 84.2 ± 2.56% in data set [7] (compound at IC50 concentration obtained for HT-29 cells).
`N.N.[Cl][Pt][Cl]` [cisplatin]: the GI50 with A549 is 4.9 µM.
`Brc1ccc(C(c2cccc3ccccc23)N2CCCC2)cc1` (centres unmarked) [compound 14j]: in the data set with A549, the GI50 is 7.9 µM.
With `N#Cc1ccc(C(NCc2ccccc2)c2cccc3ccccc23)cc1` (centres unmarked) [compound 14t], the GI50 in the data set with T47D is 8.4 µM; in the data set on HeLa, 4.1 µM; in the data set with HBL100 it was 5 µM; in the data set on SW1573, 6.3 µM.
